Reference: paper PMC9856672, “SGC-CAMKK2-1: A Chemical Probe for CAMKK2” (Cells, 2023)

Tests used:
NIM1 = biological target: T1, NIM1 (Homo sapiens, UniProt Q8IY84); assay: KINOMEscan at 1 μM, NIM1; format: binding; settings: 1000 nM, read-out: Percent Control
T1 construct: purchased Eurofins DiscoverX KINOMEscan
Description: (§1) Supplement cells-12-00287-s001.zip/File S2. KinomeScan data for the CAMKK2 probe and negative control.xlsx, sheet "SGC-CAMKK2-1N" | column: Percent Control

CDK4-cyclinD1 = biological target: T2, CDK4-cyclinD1 (Homo sapiens, UniProt P11802); assay: KINOMEscan at 1 μM, CDK4-cyclinD1; format: binding; settings: 1000 nM, read-out: Percent Control
T2 construct: purchased Eurofins DiscoverX KINOMEscan
Description: as §1

MKK7 = biological target: T3, MKK7 (Homo sapiens, UniProt O14733); assay: KINOMEscan at 1 μM, MKK7; format: binding; settings: 1000 nM, read-out: Percent Control
T3 construct: purchased Eurofins DiscoverX KINOMEscan
Description: as §1

MLK1 = biological target: T4, MLK1 (Homo sapiens, UniProt P80192); assay: KINOMEscan at 1 μM, MLK1; format: binding; settings: 1000 nM, read-out: Percent Control
T4 construct: purchased Eurofins DiscoverX KINOMEscan
Description: as §1

MARK1 = biological target: T5, MARK1 (Homo sapiens, UniProt Q9P0L2); assay: KINOMEscan at 1 μM, MARK1; format: binding; settings: 1000 nM, read-out: Percent Control
T5 construct: purchased Eurofins DiscoverX KINOMEscan
Description: as §1

TSSK3 = biological target: T6, TSSK3 (Homo sapiens, UniProt Q96PN8); assay: KINOMEscan at 1 μM, TSSK3; format: binding; settings: 1000 nM, read-out: Percent Control
T6 construct: purchased Eurofins DiscoverX KINOMEscan
Description: as §1

[1] = biological target: T7, JAK1(JH2domain-pseudokinase) (Homo sapiens, UniProt P23458); assay: KINOMEscan at 1 μM, JAK1(JH2domain-pseudokinase); format: binding; settings: 1000 nM, read-out: Percent Control
T7 construct: JAK1(JH2domain-pseudokinase); purchased Eurofins DiscoverX KINOMEscan
Description: as §1

S6K1 = biological target: T8, S6K1 (Homo sapiens, UniProt P23443); assay: KINOMEscan at 1 μM, S6K1; format: binding; settings: 1000 nM, read-out: Percent Control
T8 construct: purchased Eurofins DiscoverX KINOMEscan
Description: as §1

FLT3-autoinhibited = biological target: T9, FLT3-autoinhibited (Homo sapiens, UniProt P36888); assay: KINOMEscan at 1 μM, FLT3-autoinhibited; format: binding; settings: 1000 nM, read-out: Percent Control
T9 construct: purchased Eurofins DiscoverX KINOMEscan
Description: as §1

PKNB(M.tuberculosis) = biological target: T10, PKNB(M.tuberculosis) (Mycobacterium tuberculosis, UniProt P9WI81); assay: KINOMEscan at 1 μM, PKNB(M.tuberculosis); format: binding; settings: 1000 nM, read-out: Percent Control
T10 construct: purchased Eurofins DiscoverX KINOMEscan
Description: as §1

EPHA3 = biological target: T11, EPHA3 (Homo sapiens, UniProt P29320); assay: KINOMEscan at 1 μM, EPHA3; format: binding; settings: 1000 nM, read-out: Percent Control
T11 construct: purchased Eurofins DiscoverX KINOMEscan
Description: as §1

YANK3 = biological target: T12, YANK3 (Homo sapiens, UniProt Q86UX6); assay: KINOMEscan at 1 μM, YANK3; format: binding; settings: 1000 nM, read-out: Percent Control
T12 construct: purchased Eurofins DiscoverX KINOMEscan
Description: as §1

TRKC = biological target: T13, TRKC (Homo sapiens, UniProt Q16288); assay: KINOMEscan at 1 μM, TRKC; format: binding; settings: 1000 nM, read-out: Percent Control
T13 construct: purchased Eurofins DiscoverX KINOMEscan
Description: as §1

RET(M918T) = biological target: T14, RET(M918T) (Homo sapiens, UniProt P07949, M918T); assay: KINOMEscan at 1 μM, RET(M918T); format: binding; settings: 1000 nM, read-out: Percent Control
T14 construct: purchased Eurofins DiscoverX KINOMEscan
Description: as §1

RET(V804L) = biological target: T15, RET(V804L) (Homo sapiens, UniProt P07949, V804L); assay: KINOMEscan at 1 μM, RET(V804L); format: binding; settings: 1000 nM, read-out: Percent Control
T15 construct: purchased Eurofins DiscoverX KINOMEscan
Description: as §1

IKK-epsilon = biological target: T16, IKK-epsilon (Homo sapiens, UniProt Q14164); assay: KINOMEscan at 1 μM, IKK-epsilon; format: binding; settings: 1000 nM, read-out: Percent Control
T16 construct: purchased Eurofins DiscoverX KINOMEscan
Description: as §1

DAPK2 = biological target: T17, DAPK2 (Homo sapiens, UniProt Q9UIK4); assay: KINOMEscan at 1 μM, DAPK2; format: binding; settings: 1000 nM, read-out: Percent Control
T17 construct: purchased Eurofins DiscoverX KINOMEscan
Description: as §1

OSR1 = biological target: T18, OSR1 (Homo sapiens, UniProt O95747); assay: KINOMEscan at 1 μM, OSR1; format: binding; settings: 1000 nM, read-out: Percent Control
T18 construct: purchased Eurofins DiscoverX KINOMEscan
Description: as §1

BLK = biological target: T19, BLK (Homo sapiens, UniProt P51451); assay: KINOMEscan at 1 μM, BLK; format: binding; settings: 1000 nM, read-out: Percent Control
T19 construct: purchased Eurofins DiscoverX KINOMEscan
Description: as §1

PAK1 = biological target: T20, PAK1 (Homo sapiens, UniProt Q13153); assay: KINOMEscan 1 μM, PAK1; format: binding; settings: 1000 nM; Entrez PAK1; read-out: Percent Control
T20 construct: purchased Eurofins DiscoverX KINOMEscan
Description: (§2) Supplement cells-12-00287-s001.zip/File S2. KinomeScan data for the CAMKK2 probe and negative control.xlsx, sheet "SGC-CAMKK2-1" | column: Percent Control

MERTK = biological target: T21, MERTK (Homo sapiens, UniProt Q12866); assay: KINOMEscan 1 μM, MERTK; format: binding; settings: 1000 nM; Entrez MERTK; read-out: Percent Control
T21 construct: purchased Eurofins DiscoverX KINOMEscan
Description: as §2

EPHB4 = biological target: T22, EPHB4 (Homo sapiens, UniProt P54760); assay: KINOMEscan 1 μM, EPHB4; format: binding; settings: 1000 nM; Entrez EPHB4; read-out: Percent Control
T22 construct: purchased Eurofins DiscoverX KINOMEscan
Description: as §2

FLT3(ITD,F691L) = assay: KINOMEscan 1 μM, FLT3(ITD,F691L); format: binding, human; settings: 1000 nM; Entrez FLT3
Description: as §2

ANKK1 = biological target: T23, ANKK1 (Homo sapiens, UniProt Q8NFD2); assay: KINOMEscan 1 μM, ANKK1; format: binding; settings: 1000 nM; Entrez ANKK1; read-out: Percent Control
T23 construct: purchased Eurofins DiscoverX KINOMEscan
Description: as §2

TXK = biological target: T24, TXK (Homo sapiens, UniProt P42681); assay: DiscoverX KINOMEscan binding assay at 1 μM, TXK; settings: Compound Concentration 1000 nM, read-out: Percent Control
T24 construct: purchased Eurofins DiscoverX KINOMEscan
Description: as §2

[2] = biological target: T25, RSK3(Kin.Dom.1-N-terminal) (Homo sapiens, UniProt Q15349); assay: KINOMEscan 1 μM, RSK3(Kin.Dom.1-N-terminal); format: binding; settings: 1000 nM; Entrez RPS6KA2; read-out: Percent Control
T25 construct: RSK3(Kin.Dom.1-N-terminal); purchased Eurofins DiscoverX KINOMEscan
Description: as §2

MST1 = biological target: T26, MST1 (Homo sapiens, UniProt Q13043); assay: KINOMEscan 1 μM, MST1; format: binding; settings: 1000 nM; Entrez STK4; read-out: Percent Control
T26 construct: purchased Eurofins DiscoverX KINOMEscan
Description: as §2

MLK2 = biological target: T27, MLK2 (Homo sapiens, UniProt Q02779); assay: KINOMEscan 1 μM, MLK2; format: binding; settings: 1000 nM; Entrez MAP3K10; read-out: Percent Control
T27 construct: purchased Eurofins DiscoverX KINOMEscan
Description: as §2

JNK3 = biological target: T28, JNK3 (Homo sapiens, UniProt P53779); assay: KINOMEscan 1 μM, JNK3; format: binding; settings: 1000 nM; Entrez MAPK10; read-out: Percent Control
T28 construct: purchased Eurofins DiscoverX KINOMEscan
Description: as §2

BRK = biological target: T29, BRK (Homo sapiens, UniProt Q13882); assay: KINOMEscan 1 μM, BRK; format: binding; settings: 1000 nM; Entrez PTK6; read-out: Percent Control
T29 construct: purchased Eurofins DiscoverX KINOMEscan
Description: as §2

ICK = biological target: T30, ICK (Homo sapiens, UniProt Q9UPZ9); assay: KINOMEscan 1 μM, ICK; format: binding; settings: 1000 nM; Entrez ICK; read-out: Percent Control
T30 construct: purchased Eurofins DiscoverX KINOMEscan
Description: as §2

SNRK = biological target: T31, SNRK (Homo sapiens, UniProt Q9NRH2); assay: KINOMEscan 1 μM, SNRK; format: binding; settings: 1000 nM; Entrez SNRK; read-out: Percent Control
T31 construct: purchased Eurofins DiscoverX KINOMEscan
Description: as §2

VPS34 = biological target: T32, VPS34 (Homo sapiens, UniProt Q8NEB9); assay: DiscoverX KINOMEscan binding assay at 1 μM, VPS34; settings: VPS34 (PIK3C3); Compound Concentration 1000 nM; read-out: Percent Control
T32 construct: purchased Eurofins DiscoverX KINOMEscan
Description: as §2

WNK1 = biological target: T33, WNK1 (Homo sapiens, UniProt Q9H4A3); assay: DiscoverX KINOMEscan binding assay at 1 μM, WNK1; settings: Compound Concentration 1000 nM, read-out: Percent Control
T33 construct: purchased Eurofins DiscoverX KINOMEscan
Description: as §2

T7 sequence (P23458 583-855 limits assumed): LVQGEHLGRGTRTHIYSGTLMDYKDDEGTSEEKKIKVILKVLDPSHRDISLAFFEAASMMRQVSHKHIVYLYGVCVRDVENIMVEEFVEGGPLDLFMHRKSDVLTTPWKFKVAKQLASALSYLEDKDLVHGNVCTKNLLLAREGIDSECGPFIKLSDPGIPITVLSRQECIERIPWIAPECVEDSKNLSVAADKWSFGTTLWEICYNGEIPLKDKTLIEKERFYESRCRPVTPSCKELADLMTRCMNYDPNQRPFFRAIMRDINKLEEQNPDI
T17 sequence (Q9UIK4 whole entry): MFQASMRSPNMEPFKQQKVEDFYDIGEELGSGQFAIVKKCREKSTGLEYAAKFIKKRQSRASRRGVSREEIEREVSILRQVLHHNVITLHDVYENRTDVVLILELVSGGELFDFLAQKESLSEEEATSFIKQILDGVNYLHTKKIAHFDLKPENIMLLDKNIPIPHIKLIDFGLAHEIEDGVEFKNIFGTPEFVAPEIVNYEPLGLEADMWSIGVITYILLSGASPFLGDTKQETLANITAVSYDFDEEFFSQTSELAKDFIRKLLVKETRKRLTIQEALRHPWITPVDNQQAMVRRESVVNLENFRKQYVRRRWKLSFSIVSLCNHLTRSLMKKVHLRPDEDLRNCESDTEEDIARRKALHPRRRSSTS
T16 sequence (Q14164 whole entry): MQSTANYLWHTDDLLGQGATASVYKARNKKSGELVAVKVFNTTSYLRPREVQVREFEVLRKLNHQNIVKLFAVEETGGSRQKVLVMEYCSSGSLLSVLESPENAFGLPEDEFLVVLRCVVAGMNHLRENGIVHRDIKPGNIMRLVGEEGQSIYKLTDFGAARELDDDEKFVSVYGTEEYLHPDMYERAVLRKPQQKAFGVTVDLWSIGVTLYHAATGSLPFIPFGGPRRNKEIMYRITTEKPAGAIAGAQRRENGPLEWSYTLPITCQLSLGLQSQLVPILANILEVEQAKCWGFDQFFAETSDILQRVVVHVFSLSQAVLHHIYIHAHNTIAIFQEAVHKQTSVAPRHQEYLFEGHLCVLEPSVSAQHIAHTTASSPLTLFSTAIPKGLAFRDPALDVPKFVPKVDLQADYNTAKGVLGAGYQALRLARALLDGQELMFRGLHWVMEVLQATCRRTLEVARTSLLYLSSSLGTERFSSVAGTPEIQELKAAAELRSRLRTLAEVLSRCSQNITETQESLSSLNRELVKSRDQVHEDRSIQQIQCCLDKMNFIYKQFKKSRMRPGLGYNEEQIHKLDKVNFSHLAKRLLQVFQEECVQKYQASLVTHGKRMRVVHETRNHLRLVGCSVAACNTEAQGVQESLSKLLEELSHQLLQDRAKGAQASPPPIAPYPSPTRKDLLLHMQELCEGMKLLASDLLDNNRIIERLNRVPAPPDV
T27 sequence (Q02779 whole entry): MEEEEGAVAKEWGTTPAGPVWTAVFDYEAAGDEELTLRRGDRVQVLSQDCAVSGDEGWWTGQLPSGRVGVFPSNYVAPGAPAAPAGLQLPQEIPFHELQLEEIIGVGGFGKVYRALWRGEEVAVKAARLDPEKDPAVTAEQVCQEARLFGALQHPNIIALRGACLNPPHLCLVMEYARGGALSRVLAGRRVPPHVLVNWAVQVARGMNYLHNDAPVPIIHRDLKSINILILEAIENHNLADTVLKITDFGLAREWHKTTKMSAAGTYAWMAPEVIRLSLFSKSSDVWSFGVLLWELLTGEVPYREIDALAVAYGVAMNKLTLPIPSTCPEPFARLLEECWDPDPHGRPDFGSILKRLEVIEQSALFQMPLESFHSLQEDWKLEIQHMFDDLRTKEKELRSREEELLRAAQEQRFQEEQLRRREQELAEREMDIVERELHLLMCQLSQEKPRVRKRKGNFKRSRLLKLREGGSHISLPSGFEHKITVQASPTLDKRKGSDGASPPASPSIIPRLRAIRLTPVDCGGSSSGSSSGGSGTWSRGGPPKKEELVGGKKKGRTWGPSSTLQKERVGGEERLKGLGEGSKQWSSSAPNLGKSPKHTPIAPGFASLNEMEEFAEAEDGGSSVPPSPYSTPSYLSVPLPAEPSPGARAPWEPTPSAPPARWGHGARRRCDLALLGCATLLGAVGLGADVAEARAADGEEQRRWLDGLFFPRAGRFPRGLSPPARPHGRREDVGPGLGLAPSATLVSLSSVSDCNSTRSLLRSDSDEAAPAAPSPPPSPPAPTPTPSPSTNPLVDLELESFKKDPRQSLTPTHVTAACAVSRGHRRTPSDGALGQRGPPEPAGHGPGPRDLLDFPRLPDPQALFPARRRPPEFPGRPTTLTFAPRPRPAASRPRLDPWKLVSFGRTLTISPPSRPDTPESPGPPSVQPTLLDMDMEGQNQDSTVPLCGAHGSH
T3 sequence (O14733 whole entry): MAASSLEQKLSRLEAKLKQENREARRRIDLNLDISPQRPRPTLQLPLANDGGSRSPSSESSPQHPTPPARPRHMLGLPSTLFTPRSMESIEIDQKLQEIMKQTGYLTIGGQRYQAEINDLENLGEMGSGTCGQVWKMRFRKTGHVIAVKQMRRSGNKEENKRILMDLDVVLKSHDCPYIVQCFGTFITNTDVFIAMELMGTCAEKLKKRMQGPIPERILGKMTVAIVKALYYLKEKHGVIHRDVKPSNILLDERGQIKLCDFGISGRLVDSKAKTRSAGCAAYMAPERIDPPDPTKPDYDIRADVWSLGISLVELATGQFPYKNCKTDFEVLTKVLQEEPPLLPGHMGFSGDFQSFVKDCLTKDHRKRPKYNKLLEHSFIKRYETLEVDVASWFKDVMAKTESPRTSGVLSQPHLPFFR
T13 sequence (Q16288 32-839): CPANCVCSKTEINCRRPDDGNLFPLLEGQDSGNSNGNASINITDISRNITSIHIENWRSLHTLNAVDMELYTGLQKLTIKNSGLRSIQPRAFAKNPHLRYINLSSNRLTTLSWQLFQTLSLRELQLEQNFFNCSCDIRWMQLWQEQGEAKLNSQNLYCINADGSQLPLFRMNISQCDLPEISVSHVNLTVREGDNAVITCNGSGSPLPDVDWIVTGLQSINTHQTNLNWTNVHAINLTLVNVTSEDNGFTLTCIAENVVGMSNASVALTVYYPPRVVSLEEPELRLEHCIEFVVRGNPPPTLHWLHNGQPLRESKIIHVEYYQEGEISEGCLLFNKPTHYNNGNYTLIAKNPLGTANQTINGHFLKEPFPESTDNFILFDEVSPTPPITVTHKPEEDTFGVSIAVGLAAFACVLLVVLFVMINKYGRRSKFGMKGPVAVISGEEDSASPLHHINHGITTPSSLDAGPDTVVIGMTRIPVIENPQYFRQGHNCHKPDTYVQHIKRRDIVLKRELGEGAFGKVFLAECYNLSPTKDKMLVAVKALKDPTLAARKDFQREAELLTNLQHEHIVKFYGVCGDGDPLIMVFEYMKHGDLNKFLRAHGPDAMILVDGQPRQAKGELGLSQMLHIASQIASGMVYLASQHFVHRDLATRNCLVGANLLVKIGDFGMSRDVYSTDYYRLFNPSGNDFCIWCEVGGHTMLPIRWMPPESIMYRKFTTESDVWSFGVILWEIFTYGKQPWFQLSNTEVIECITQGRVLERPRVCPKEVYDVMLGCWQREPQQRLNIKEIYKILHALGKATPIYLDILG
T25 sequence (Q15349 1-388 limits assumed): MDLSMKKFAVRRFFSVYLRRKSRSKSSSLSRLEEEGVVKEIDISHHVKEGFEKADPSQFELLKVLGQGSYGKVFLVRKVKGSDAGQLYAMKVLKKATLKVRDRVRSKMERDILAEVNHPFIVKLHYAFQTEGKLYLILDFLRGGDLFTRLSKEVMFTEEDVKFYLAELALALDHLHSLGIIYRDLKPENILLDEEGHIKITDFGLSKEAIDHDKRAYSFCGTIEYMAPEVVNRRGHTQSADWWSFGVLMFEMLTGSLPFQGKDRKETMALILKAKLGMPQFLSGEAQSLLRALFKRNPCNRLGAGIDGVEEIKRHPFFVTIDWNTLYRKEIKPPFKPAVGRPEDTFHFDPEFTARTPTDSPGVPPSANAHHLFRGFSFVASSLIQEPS
T26 sequence (Q13043 whole entry): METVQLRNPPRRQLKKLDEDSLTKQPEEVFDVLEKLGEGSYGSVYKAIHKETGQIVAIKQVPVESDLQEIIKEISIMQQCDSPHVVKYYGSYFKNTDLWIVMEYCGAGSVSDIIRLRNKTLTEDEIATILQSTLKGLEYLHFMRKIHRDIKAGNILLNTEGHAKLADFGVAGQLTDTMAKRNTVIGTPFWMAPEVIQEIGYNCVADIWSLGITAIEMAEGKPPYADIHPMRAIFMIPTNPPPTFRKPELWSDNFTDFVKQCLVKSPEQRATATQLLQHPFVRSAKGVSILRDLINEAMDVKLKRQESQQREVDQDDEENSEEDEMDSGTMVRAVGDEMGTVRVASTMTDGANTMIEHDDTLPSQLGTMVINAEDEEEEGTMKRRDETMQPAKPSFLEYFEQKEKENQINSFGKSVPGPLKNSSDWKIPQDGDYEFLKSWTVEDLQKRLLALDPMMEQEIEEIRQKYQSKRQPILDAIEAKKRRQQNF
T24 sequence (P42681 whole entry): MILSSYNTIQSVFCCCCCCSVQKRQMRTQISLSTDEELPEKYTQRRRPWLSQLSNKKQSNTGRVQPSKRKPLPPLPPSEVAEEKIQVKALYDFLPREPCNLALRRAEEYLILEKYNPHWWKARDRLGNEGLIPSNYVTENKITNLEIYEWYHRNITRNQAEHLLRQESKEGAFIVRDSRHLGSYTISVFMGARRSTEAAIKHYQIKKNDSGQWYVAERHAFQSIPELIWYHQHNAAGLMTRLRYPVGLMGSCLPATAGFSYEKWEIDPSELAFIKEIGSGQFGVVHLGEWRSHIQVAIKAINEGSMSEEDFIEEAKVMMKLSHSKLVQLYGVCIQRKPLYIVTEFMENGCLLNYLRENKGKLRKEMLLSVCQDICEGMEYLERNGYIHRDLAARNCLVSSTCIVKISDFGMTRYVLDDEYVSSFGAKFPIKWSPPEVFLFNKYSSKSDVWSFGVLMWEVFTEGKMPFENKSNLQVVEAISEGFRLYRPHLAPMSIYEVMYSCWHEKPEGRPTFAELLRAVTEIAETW

## O=C(O)c1ccc(-c2coc3ncc(-c4ccccc4)cc23)cc1Cl [SGC-CAMKK2-1N (UNC-YL-83)]
NIM1
  remaining binding at 1 µM: 81%
CDK4-cyclinD1
  remaining binding at 1 µM: 70%
MKK7
  remaining binding at 1 µM: 82%
MLK1
  remaining binding at 1 µM: 82%
MARK1
  remaining binding at 1 µM: 97%
TSSK3
  remaining binding at 1 µM: 65%
[1]
  remaining binding at 1 µM: 80%
S6K1
  remaining binding at 1 µM: 76%
FLT3-autoinhibited
  remaining binding at 1 µM: 91%
PKNB(M.tuberculosis)
  remaining binding at 1 µM: 83%
EPHA3
  remaining binding at 1 µM: 92%
YANK3
  remaining binding at 1 µM: 70%
TRKC
  remaining binding at 1 µM: 78%
RET(M918T)
  remaining binding at 1 µM: 99%
RET(V804L)
  remaining binding at 1 µM: 90%
IKK-epsilon
  remaining binding at 1 µM: 98%
DAPK2
  remaining binding at 1 µM: 70%
OSR1
  remaining binding at 1 µM: 64%
BLK
  remaining binding at 1 µM: 87%

## Cc1cccc(-c2cnc3occ(-c4ccc(C(=O)O)c(C5CCCC5)c4)c3c2)c1 [SGC-CAMKK2-1 (YL-36)]
PAK1
  remaining binding at 1 µM: 82%
MERTK
  remaining binding at 1 µM: 100%
EPHB4
  remaining binding at 1 µM: 98%
FLT3(ITD,F691L)
  Percent Control: 100%
ANKK1
  remaining binding at 1 µM: 100%
TXK
  remaining binding at 1 µM: 100%
[2]
  remaining binding at 1 µM: 86%
MST1
  remaining binding at 1 µM: 100%
MLK2
  remaining binding at 1 µM: 100%
JNK3
  remaining binding at 1 µM: 100%
BRK
  remaining binding at 1 µM: 100%
ICK
  remaining binding at 1 µM: 100%
SNRK
  remaining binding at 1 µM: 94%
VPS34
  remaining binding at 1 µM: 100%
WNK1
  remaining binding at 1 µM: 100%
